From US20170368104A1, “INDUCTION OF TOLERANCE IN LUNG ALLOGRAFT TRANSPLANTATION” (Washington University, priority 2013, published 2017)

These compounds were tested on B6 CD45.1^+ CD4^+ T cells (assay: In vitro mixed lymphocyte reaction, CD4+ responders). Details: agent added to MLR containing accepting allograft-derived CD8+ T cells.
Format: cell-based, mouse
Description: In vitro mixed lymphocyte reactions were performed in round bottom 96-well plates using 3×10^5 T cell-depleted Balb/c splenocyte stimulators with 10^5 CFSE-labeled B6 CD45.1^+ CD4^+ or CD8^+ T cell responders and, as indicated, 10^5 CD8^+ T cells isolated from lungs or spleens of immunosuppressed B6 recipients of Balb/c allografts. For some experiments central and effector memory T cells were sorted from lungs of resting mice. T cell responses were evaluated flow cytometrically on day 5. All compounds inhibiting the metabolism of essential amino acids were obtained from Sigma-Aldrich (St. Louis, Mo.) and added to the co-cultures as previously described for the duration of the experiment (41).
`CC(=N)NCCCC[C@H](N)C(=O)O.Cl.Cl` [L-nil, N6-(1-iminoethyl)-L-lysine, dihydrochloride] was tested, and the “CD8+ T cell-mediated suppression of CD4+ T lymphocyte proliferation” value (“CD8+ T cell-mediated suppression” for short) was “able to attenuate”.
`CCC[C@H](N)C(=O)O` [L-novaline] was tested, and the “CD8+ T cell-mediated suppression” value was “did not affect proliferation”.
`Cn1cc(C[C@H](N)C(=O)O)c2ccccc21` [1-methyl-tryptophan] was tested, and the “CD8+ T cell-mediated suppression” value was “did not affect proliferation”.
In the case of `NC(=NCCC[C@H](N)C(=O)O)N[N+](=O)[O-]` [L-NNA, NG-nitro-L-Arginine; L-NG-Nitroarginine], the “CD8+ T cell-mediated suppression” value is reported as “able to attenuate”.
In the case of `N=C(N)NCCC[C@H](N)C(=O)O` [L-arginine], the “CD8+ T cell-mediated suppression” value is reported as “did not reverse”.
